Experimental data as given in US9169217B2, “Arylalkyl esters of 4-amino-6-(substituted phenyl)-picolinates and 6-amino-2-(substituted phenyl)-pyrimidinecarboxylates and their use as selective herbicides for crops” (Dow AgroSciences LLC, priority 2011, dated 2015).

Legend:
Format in all cases: in vivo
[1] = system: Cyperus rotundus L. (purple nutsedge); assay: In-water applied herbicidal activity in transplanted paddy rice (Example 17); settings: rice cropping systems, 35 g ae/ha, 21 DAA, may represent multiple trials
Protocol: (§1) Weed seeds or nutlets of the desired test plant species were planted in puddled soil (mud) prepared by mixing a non-sterilized mineral soil (28 percent silt, 18 percent clay, and 54 percent sand, with a pH of about 7.3 to 7.8 and an organic matter content of about 1.0 percent) and water at a ratio of 100 kilograms (kg) of soil to 19 liters (L) of water. The prepared mud was dispensed in 250 mL aliquots into 480 mL non-perforated plastic pots with a surface area of 91.6 cm^2 leaving a headspace of 3 cm in each pot. Rice seeds were planted in Sun Gro MetroMix 306 planting mixture, which typically has a pH of 6.0 to 6.8 and an organic matter content of about 30 percent, in plastic plug trays. Seedlings at the second or third leaf stage of growth were transplanted into 650 mL of mud contained in 960 mL non-perforated plastic pots with a surface area of 91.6 cm^2 four days prior to herbicide application. The paddy was created by filling the 3 cm headspace of the pots with water. When required to ensure good germination and healthy plants, a fungicide treatment and/or other chemical or physical treatment was applied. The plants were grown for 4-14 d in a greenhouse with an approximate 14-h photoperiod which was maintained at about 29° C. during the day and 26° C. during the night. Nutrients were added as Osmocote (17:6:10, Nitrogen:Phosphorus:Potassium (N:P:K)+minor nutrients) at 2 grams (g) per cup. Water was added on a regular basis to maintain the paddy flood, and supplemental lighting was provided with overhead metal halide 1000-Watt lamps as necessary. The plants were employed for testing when they reached the second or third true leaf stage.
(§2) Treatments consisted of esters of compounds 1-4, 6-33, 35-39, 41 and 42 and A-G. Compound A is methyl 4-amino-3-chloro-6-(4-chloro-3-ethoxy-2-fluorophenyl)-5-fluoropicolinate; compound B is methyl 4-amino-3-chloro-6-(4-cyclopropylphenyl)-5-fluoropicolinate; compound C is methyl 4-amino-3-chloro-6-(2,4-dichloro-3-methoxyphenyl)picolinate; compound D is methyl 6-amino-2-(4-chloro-2-fluoro-3-methoxyphenyl)-5-vinylpyrimidine-4-carboxylate; compound E is methyl 4-amino-3-chloro-6-(4-chloro-2-fluoro-3-methoxyphenyl)-5-fluoropicolinate; compound F is methyl 6-amino-2-(4-chloro-2-fluoro-3-methoxyphenyl)-5-methoxypyrimidine-4-carboxylate; and compound G is methyl 4-amino-3-chloro-6-(4-chloro-2-fluoro-3-methoxyphenyl)picolinate. Weighed amounts of technical grade compounds were placed in individual 120 mL glass vials and were dissolved in 20 mL of acetone to obtain concentrated stock solutions. […] The concentrated stock solutions obtained were diluted with 20 mL of an aqueous mixture containing 2.5% Agri-dex crop oil concentrate (v/v). The final application solutions contained 1.25% (v/v) Agri-dex crop oil concentrate. Generally, multiple concentrations were tested utilizing the same stock solution. Applications were made by injecting an appropriate amount of the application solution into the aqueous layer of the paddy. Control plants were treated in the same manner with the solvent blank.
(§3) The treated plants and control plants were placed in a greenhouse as described above and water was added as needed to maintain a paddy flood. After 3 weeks the condition of the test plants, compared with that of the untreated plants, was determined visually and scored on a scale of 0 to 100 percent where 0 corresponds to no injury and 100 corresponds to complete kill.
(§4) By applying the well-accepted probit analysis as described by J. Berkson in Journal of the American Statistical […], 48, 565 (1953) and by D. Finney in “Probit Analysis” Cambridge University Press (1952), the data gathered can be used to calculate GR50 and GR80 values, which are defined as growth reduction factors that correspond to the effective dose of herbicide required to kill or control 50 percent or 80 percent, respectively, of a target plant.

[2] = system: Echinochloa crus-galli (L.) P.BEAUV. (barnyardgrass); assay: as above; settings: Echinochloa crus-galli, 504 h; rice cropping systems, in-water applied (paddy), 35 g ae/ha, 21 DAA; may represent multiple trials; read-out: Visual Injury (%) ECHCG
Protocol: as §1, §2, §3, §4

Avena fatua (Oat, wild) = assay: Postemergence herbicidal activity in cereal crops (Example 14); settings: wheat cropping systems, postemergence spray, 35 g ae/ha, 21 DAA
Protocol: (§5) Seeds of the desired test plant species were planted in Sun Gro Metro-Mix® 360 planting mixture, which typically has a pH of 6.0 to 6.8 and an organic matter content of about 30 percent, in plastic pots with a surface area of 84.6 cm^2. When required to ensure good germination and healthy plants, a fungicide treatment and/or other chemical or physical treatment was applied. The plants were grown for 7-36 d in a greenhouse with an approximate 14 h photoperiod which was maintained at about 18° C. during the day and 17° C. during the night. Nutrients and water were added on a regular basis and supplemental lighting was provided with overhead metal halide 1000-Watt lamps as necessary. The plants were employed for testing when they reached the second or third true leaf stage.
(§6) Treatments consisted of esters of compounds 33, 34, 39, 40 and 42 and B, F, G and H. Compound B is methyl 4-amino-3-chloro-6-(4-cyclopropylphenyl)-5-fluoropicolinate; compound F is methyl 6-amino-2-(4-chloro-2-fluoro-3-methoxyphenyl)-5-methoxypyrimidine-4-carboxylate; compound G is methyl 4-amino-3-chloro-6-(4-chloro-2-fluoro-3-methoxyphenyl)picolinate; and compound H is methyl 4-amino-3-chloro-6-(4-chloro-2-fluoro-3-(1-fluoroethyl)phenyl)-5-fluoropicolinate. A weighed amount, determined by the highest rate to be tested, of each test compound was placed in a 25 mL glass vial and was dissolved in 8 mL of a 97:3 v/v mixture of acetone and DMSO to obtain concentrated stock solutions. […] The concentrated stock solutions obtained were diluted with 16 mL of an aqueous mixture containing acetone, water, isopropyl alcohol, DMSO, Agri-dex crop oil concentrate, and Triton® X-77 surfactant in a 64.7:26.0:6.7:2.0:0.7:0.01 v/v ratio to obtain spray solutions containing the highest application rates. Additional application rates were obtained by serial dilution of 12 mL of the high rate solution into a solution containing 4 mL of a 97:3 v/v mixture of acetone and DMSO and 8 mL of an aqueous mixture containing acetone, water, isopropyl alcohol, DMSO, Agri-dex crop oil concentrate, and Triton® X-77 surfactant in a 48.5:39.0:10.0:1.5:1.0:0.02 v/v ratio to obtain ½×, ¼×, ⅛× and 1/16× rates of the high rate. Compound requirements are based upon a 12 mL application volume at a rate of 187 L/ha. Formulated compounds were applied to the plant material with an overhead Mandel track sprayer equipped with 8002E nozzles calibrated to deliver 187 L/ha over an application area of 0.503 m^2 at a spray height of 18 inches (43 cm) above average plant canopy height. Control plants were sprayed in the same manner with the blank.
(§7) The treated plants and control plants were placed in a greenhouse as described above and watered by sub-irrigation to prevent wash-off of the test compounds. After 20-22 d, the condition of the test plants as compared with that of the untreated plants was determined visually and scored on a scale of 0 to 100 percent where 0 corresponds to no injury and 100 corresponds to complete kill.

[3] = system: Lolium multiflorum (Ryegrass, Italian); assay: as above; settings: wheat cropping systems, postemergence spray, 17.5 g ae/ha, 21 DAA
Protocol: as §5, §6, §7

[4] = system: Matricaria chamomilla (Mayweed, wild); assay: as above; settings: wheat cropping systems, postemergence spray, 35 g ae/ha, 21 DAA
Protocol: as §5, §6, §7

[5] = system: Setaria viridis (Foxtail, green); assay: as above; settings: wheat cropping systems, postemergence spray, 17.5 g ae/ha, 21 DAA
Protocol: as §5, §6, §7

[6] = system: Brachiaria platyphylla (GRISEB.) NASH (broadleaf signalgrass); assay: Postemergence foliar-applied herbicidal activity in direct seeded rice (Example 16); settings: rice cropping systems, 8.75 g ae/ha, 21 DAA, may represent multiple trials
Description: (§8) Seeds or nutlets of the desired test plant species were planted in a soil matrix prepared by mixing a loam soil (43 percent silt, 19 percent clay, and 38 percent sand, with a pH of about 8.1 and an organic matter content of about 1.5 percent) and river sand in an 80 to 20 ratio. The soil matrix was contained in plastic pots with a surface area of 139.7 cm^2. When required to ensure good germination and healthy plants, a fungicide treatment and/or other chemical or physical treatment was applied. The plants were grown for 10-17 d in a greenhouse with an approximate 14-h photoperiod which was maintained at about 29° C. during the day and 26° C. during the night. Nutrients and water were added on a regular basis and supplemental lighting was provided with overhead metal halide 1000-Watt lamps as necessary. The plants were employed for testing when they reached the second or third true leaf stage.
(§9) Treatments consisted of esters of compounds 1-4, 6-8, 10, 11, 13-16, 20-31, 35, 38, 41 and 42 and A-E. Compound A is methyl 4-amino-3-chloro-6-(4-chloro-3-ethoxy-2-fluorophenyl)-5-fluoropicolinate; compound B is methyl 4-amino-3-chloro-6-(4-cyclopropylphenyl)-5-fluoropicolinate; compound C is methyl 4-amino-3-chloro-6-(2,4-dichloro-3-methoxyphenyl)picolinate; compound D is methyl 6-amino-2-(4-chloro-2-fluoro-3-methoxyphenyl)-5-vinylpyrimidine-4-carboxylate; and compound E is methyl 4-amino-3-chloro-6-(4-chloro-2-fluoro-3-methoxyphenyl)-5-fluoropicolinate. Weighed amounts of technical grade compounds were placed in 25 mL glass vials and dissolved in a volume of 97:3 v/v acetone-DMSO to obtain 12× stock solutions. […] The concentrated stock solutions were added to the spray solutions so that the final acetone and DMSO concentrations were 16.2% and 0.5%, respectively. Spray solutions were diluted to the appropriate final concentrations with the addition of 10 mL of an aqueous mixture of 1.5% (v/v) Agri-dex crop oil concentrate. Generally, multiple concentrations of spray solutions were formulated and tested utilizing the same stock solution. The final spray solutions contained 1.25% (v/v) Agri-dex crop oil concentrate. Compound requirements are based upon a 12 mL application volume at a rate of 187 L/ha. Spray solutions were applied to the plant material with an overhead Mandel track sprayer equipped with 8002E nozzles calibrated to deliver 187 L/ha over an application area of 0.503 square meters (m^2) at a spray height of 18 inches (43 cm) above average plant canopy height. Control plants were sprayed in the same manner with the solvent blank.
as §7, with “After 3 weeks,” for “After 20-22 d,”, “test plants,” for “test plants as”, “untreated plants,” for “untreated plants”
as §4

[7] = system: Cyperus difformis L. (small-flower flatsedge); assay: as above; settings: post-emergence, 504 h, rice cropping systems, foliar-applied, 8.75 g ae/ha, 21 DAA, may represent multiple trials, read-out: Visual Injury (%) CYPDI
Description: as §8, §9
as §7, with “After 3 weeks,” for “After 20-22 d,”, “test plants,” for “test plants as”, “untreated plants,” for “untreated plants”
as §4

[8] = system: Echinochloa colonum (L.) LINK (junglerice); assay: as above; settings: Echinochloa colona, post-emergence, 504 h, rice cropping systems, 8.75 g ae/ha, 21 DAA, may represent multiple trials, read-out: Visual Injury (%) ECHCO
Description: as §8, §9
as §7, with “After 3 weeks,” for “After 20-22 d,”, “test plants,” for “test plants as”, “untreated plants,” for “untreated plants”
as §4

[9] = system: Scirpus juncoides ROXB. (Japanese bulrush); assay: as above; settings: Schoenoplectiella juncoides, post-emergence, 504 h; rice cropping systems, foliar-applied, 8.75 g ae/ha, 21 DAA; may represent multiple trials; read-out: Visual Injury (%) SCPJU
Description: as §8, §9
as §7, with “After 3 weeks,” for “After 20-22 d,”, “test plants,” for “test plants as”, “untreated plants,” for “untreated plants”
as §4

[10] = system: Scirpus juncoides ROXB. (Japanese bulrush); assay: In-water applied herbicidal activity in transplanted paddy rice (Example 17); settings: Schoenoplectiella juncoides, 504 h; rice cropping systems, in-water applied (paddy), 35 g ae/ha, 21 DAA; may represent multiple trials; read-out: Visual Injury (%) SCPJU
Protocol: as §1, §2, §3, §4

[11] = system: Brassica sinapis (Mustard, wild); assay: Postemergence herbicidal activity in cereal crops (Example 14); settings: wheat cropping systems, postemergence spray, 8.75 g ae/ha, 21 DAA
Protocol: as §5, §6, §7

[12] = system: Pennisetum glaucum (Foxtail, yellow); assay: as above; settings: wheat cropping systems, postemergence spray, 8.75 g ae/ha, 21 DAA
Protocol: as §5, §6, §7

[13] = system: Veronica persica (Speedwell, birdseye); assay: as above; settings: wheat cropping systems, postemergence spray, 8.75 g ae/ha, 21 DAA
Protocol: as §5, §6, §7

Row | Structure (SMILES) | pest or weed control at 35 g/ha [2] [%] | Visual Injury (%) BRAPP [6] [%] | pest or weed control at 8.75 g/ha [7] [%] | pest or weed control at 8.75 g/ha [8] [%] | pest or weed control at 8.75 g/ha [9] [%] | pest or weed control at 35 g/ha [10] [%] | Visual Injury (%) SINAR [11] [%] | Visual Injury (%) PESGL [12] [%] | Visual Injury (%) VERPE [13] [%] | other results
1 | COc1c(Cl)ccc(-c2cc(N)c(Cl)c(C(=O)OCc3ccc(Cl)cc3Cl)n2)c1F [Compound 17, 2,4-dichlorobenzyl 4-amino-3-chloro-6-(4-chloro-2-fluoro-3-methoxyphenyl)picolinate] | 98 | – | – | – | – | – | – | – | – | Visual Injury (%) CYPRO [1]: 100%
2 | COc1c(N)nc(-c2ccc(Cl)c(OC)c2F)nc1C(=O)OCCc1ccccc1 [Compound 34] | – | – | – | – | – | – | – | – | – | Visual Injury (%) AVEFA (Avena fatua (Oat, wild)): 40%; Visual Injury (%) LOLMU [3]: 70%; Visual Injury (%) MATCH [4]: 20%; Visual Injury (%) SETVI [5]: 80%
3 | COc1c(Cl)ccc(-c2cc(N)c(Cl)c(C(=O)OCc3ccccc3)n2)c1Cl [Compound 38, benzyl 4-amino-3-chloro-6-(2,4-dichloro-3-methoxyphenyl)-picolinate] | 99 | 90 | 100 | 90 | 100 | 100 | – | – | – | –
4 | CC(F)c1c(Cl)ccc(-c2nc(C(=O)OCc3ccccc3)c(Cl)c(N)c2F)c1F (stereo not drawn) [Compound 40, benzyl 4-amino-3-chloro-6-(4-chloro-2-fluoro-3-(1-fluoroethyl)phenyl)-5-fluoropicolinate] | – | – | – | – | – | – | 98 | 65 | 95 | –
5 | COC(=O)c1nc(-c2ccc(Cl)c(OC)c2Cl)cc(N)c1Cl [Compound C, methyl 4-amino-3-chloro-6-(2,4-dichloro-3-methoxyphenyl)picolinate, reference compound] | 36 | 74 | 96 | 84 | 90 | 83 | – | – | – | –
6 | COC(=O)c1nc(-c2ccc(Cl)c(C(C)F)c2F)c(F)c(N)c1Cl (stereo not drawn) [Compound H, methyl 4-amino-3-chloro-6-(4-chloro-2-fluoro-3-(1-fluoroethyl)phenyl)-5-fluoropicolinate, reference compound] | – | – | – | – | – | – | 87 | 0 | 80 | –
